Values after ≈ are worked out from the molar mass of the structure shown. Like-named read-outs stand apart in the source and are kept apart here.
Assays:
[1] = Rotating disk electrode LSV, Levich, Koutecký-Levich and Tafel analysis, 1 mM BQDS in 1 M H2SO4; assay type: physicochemical
Protocol: (§1) Rotating Disk Electrode (RDE) techniques were performed using a mirror polished glassy 5 mm diameter carbon disk electrode (Pine Instruments, AFE6R1 AU) equipped within a rotator (AFMSRCE). Electrochemical tests were performed using a potentiostat (Autolab, model PGSTAT20) and a three-compartment electrochemical glass cell which employed a Pt wire counter electrode. A saturated calomel reference electrode (SCE, E°=0.244 V vs. SHE at 25° C.) was used as the reference electrode, which was ionically connected to the main compartment of the electrochemical glass cell via a Luggin capillary.
(§2) The rotation rates were from 500 rpm to 3000 rpm. CV scan rates were from 10 mV s^−1 to 200 mV s^−1. LSV scan rate was 5 mV s^−1.

[2] = Standard electrochemical potential from CV experiments; assay type: physicochemical
Protocol: as §1, §2

[3] = Cyclic voltammogram of 1 mM BQ in 1 M H2SO4; assay type: physicochemical; conditions: 1 mM in 1 M sulphuric acid, scan rate 50 mV s^−1, glassy carbon electrode
Excerpt: The working electrode was a glassy carbon electrode and the counter electrode was a platinum wire.

[4] = Rotating disk electrode measurements (Levich equation), Example 6; assay type: physicochemical; conditions: 1 mM, kinematic viscosity 0.01 cm^2 s^−1
Protocol: The hydroquinone concentration was 1 mM and the kinematic viscosity of the solution was 0.01 cm^2 s^−1. Using the Levich equation, the diffusion coefficient of benzoquinone was calculated to be 1.5707×10^−7 cm^2 s^−1.

[5] = comparison systems; cited from earlier work
[6] = comparison systems; cited from earlier work; remark: listed apart in the source
[7] = comparison species; cited from earlier work

SMILES | solubility [5] [mM] | electrochemical potential [6] | diffusion coefficient [7] | charge transfer coefficient [7] | other results
O=S(=O)([O-])c1cc(O)c(O)c(S(=O)(=O)[O-])c1.[Na+].[Na+] [BQDS, 4,5-Dihydroxy-1,3-benzenedisulfonic acid disodium salt monohydrate] | – | – | – | – | diffusion coefficient ([1]; determined from LSV, 1 mM in 1 M H2SO4): 5.15×10^−6 cm^2 s^−1; charge transfer coefficient ([1]; from Koutecký-Levich plots and Tafel plot): 0.34; standard electrochemical potential [2]: 0.86 V vs SHE
O=C1C=C(S(=O)(=O)O)C=C(S(=O)(=O)O)C1=O [BQ] | – | – | – | – | oxidation peak [3]: 1 V vs MSE; reduction peak [3]: 0.7 V vs MSE; diffusion coefficient [4]: 1.5707×10^−7 cm^2 s^−1
C[N+](C)(C)C[c-]1cccc1.[Cl-].[Fe+2].c1cc[cH-]c1 [Fe-NCL, (ferrocenylmethyl)trimethylammonium chloride] | 4000 | 0.67 V vs SHE | 3.74×10^−6 cm^2 s^−1 | – | –
CC1(C)CCCC(C)(C)N1[O] [TEMPO] | – | 0.90 V vs SHE | 7.00×10^−8 cm^2 s^−1 | 0.68 | –
Oc1ccc(O)cc1 [hydroquinone] | 500 (≈ 55.1 mg/mL) | identical potential as Fe-NCL | 5.03×10^−6 cm^2 s^−1 | 0.51 | –

Source: patent US20220029188A1, “REDOX FLOW BATTERY” (IP2IPO Innovations Limited, priority 2018, published 2022)
